Measurements taken from US11919854B2, “P2RX7 modulators in therapy” (Centre national de la recherche scientifique, priority 2018, dated 2024).

Biological target: T1, mouse P2RX7 (mP2RX7) (Mus musculus, UniProt Q9Z1M0)
T1 construct: expressed in transfected cells; host or cells: HEK cells
T1 sequence (Q9Z1M0 1-595): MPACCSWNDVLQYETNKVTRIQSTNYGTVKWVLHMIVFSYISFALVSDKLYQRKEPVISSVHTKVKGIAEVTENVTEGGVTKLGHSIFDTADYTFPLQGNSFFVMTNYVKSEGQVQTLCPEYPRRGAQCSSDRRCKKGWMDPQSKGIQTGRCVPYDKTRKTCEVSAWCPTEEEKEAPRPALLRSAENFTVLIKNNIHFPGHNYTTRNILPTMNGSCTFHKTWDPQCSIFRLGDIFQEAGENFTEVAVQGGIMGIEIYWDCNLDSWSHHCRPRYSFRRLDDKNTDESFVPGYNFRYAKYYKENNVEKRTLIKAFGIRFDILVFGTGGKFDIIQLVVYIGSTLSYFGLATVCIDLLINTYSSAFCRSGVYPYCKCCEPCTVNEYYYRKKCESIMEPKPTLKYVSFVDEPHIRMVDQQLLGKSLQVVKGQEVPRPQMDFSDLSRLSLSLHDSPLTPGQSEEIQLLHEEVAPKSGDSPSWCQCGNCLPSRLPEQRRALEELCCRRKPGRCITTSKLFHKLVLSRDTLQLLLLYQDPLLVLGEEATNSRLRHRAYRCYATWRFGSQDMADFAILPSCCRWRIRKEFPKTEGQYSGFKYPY
Assay: Channel activity (Fluo4-AM) and large pore opening (Topro3) by flow cytometry, HEK cells expressing mP2RX7, 1 h BzATP
Format: cell-based
Protocol: Calcium channel activity (Fluo4AM probe) and large pore opening (Topro3 probe) were analysed by FACS on mP2RX7 HEK cells. Cells were non stimulated (NS) or treated with BzATP (500 μM) alone or in the presence of HEI2314, HEI2328, HEI2333 or HEI2336 (used at 50 μM).
Calcium channel activity (Fluo4AM probe) and large pore opening (Topro3 probe) were analysed by FACS on mock and mP2RX7 HEK cells. Cells were non stimulated (NS) or treated with BzATP (500 μM) alone or in the presence of HEI2328 used at 50 μM.
2.1. […] Cation channel activity is assayed with the Fluo4 AM (Invitrogen) probe and opening of large pore with Topro3 (Invitrogen). In each experiment 2×10^6 cells were incubated with 50 nM Fluo4-AM for 30 minutes. After washing, cells were treated with 500 μM BzATP (3′-O-(4-benzoyl)benzoyl ATP) for 1 h, or non-treated, in presence of the compounds of the invention at 50 μM. When indicated, the Topro3 probe (8.5 nM) was added during the 1 h stimulation time. Fluorescence was assayed by flow cytometry.

[1] = cells expressing mP2RX7, BzATP 500 μM

Topro3 positive cells (BzATP 500 μM only, 1 h, mP2RX7 cells) [%]	activity in Mock cells (Mock HEK cells (no P2X receptors))	increase of Ca2+ entry [1] [fold]	increase of large pore opening [1] [fold]	Structure (SMILES)	Topro3 entry (large pore opening) (compound 50 μM, BzATP 500 μM, 1 h, mP2RX7 HEK cells)
24.7	inactive	15	4	Nc1ncnc2c1ncn2[C@@H]1O[C@H](COP(=O)(O)OP(=O)(O)OP(=O)(O)O)[C@@H](OC(=O)c2ccc(C(=O)c3ccccc3)cc2)[C@H]1O [BzATP, 3′-O-(4-benzoyl)benzoyl ATP, reference compound]	
				O=C(NCc1ccc(Cl)cc1Cl)[C@@H]1CCC(=O)N1C(=O)Nc1ccccc1Cl [HEI2314, (S)—N^1-(2-Chlorophenyl)-N^2-(2,4-dichlorobenzyl)-5-oxopyrrolidine-1,2-dicarboxamide]	increase Topro3 entry only in presence of BzATP
